In assay [1] the test system is E. coli strains with elevated MICs to Polymyxin B. Nature of the assay: MIC against strains with elevated MICs to Polymyxin B. The assay is classed as cell-based, Escherichia coli. The note with it: Table 6D; for MIC E. coli 059: strain 059, elevated MIC to Polymyxin B; for MIC E. coli 060: strain 060, elevated MIC to Polymyxin B; for MIC E. coli 061: strain 061, elevated MIC to Polymyxin B; for MIC E. coli 058: strain 058, elevated MIC to Polymyxin B. The procedure: (§1) The inoculum was prepared by making a direct suspension of isolated colonies (selected from an 18-24 hour Mueller-Hinton agar plate) adjusted to the 0.5 McFarland standard. […] The assays were performed in duplicate. […] In cases where the duplicate values varied by less than 2-fold, the lower of the two values is reported. If a variation of greater than 2-fold was observed, the assay was considered non-valid. Several of the compounds were subjected to multiple tests, and where this is the case, the MIC reflects the modal value obtained.
(§2) The Further Synthesis Examples were tested against a range of Gram negative bacteria, and tested for HK-2 cell toxicity. All the worked examples, including the Synthesis and Further Synthesis Examples, were also tested against a range of Gram negative bacteria that are resistant to Polymyxin B (i.e. those strains where Polymyxin B has an elevated MIC value).

The test system of assay [2] is P. aeruginosa strains with elevated MICs to Polymyxin B. Described as above. The assay is classed as cell-based, Pseudomonas aeruginosa. The following applies: Table 6D; for MIC P. aeruginosa 066: strain 066, elevated MIC to Polymyxin B; for MIC P. aeruginosa 067: strain 067, elevated MIC to Polymyxin B; for MIC P. aeruginosa 065: strain 065, elevated MIC to Polymyxin B. The protocol: as §1, §2

The test system of assay [3] is A. baumanii strains with elevated MICs to Polymyxin B. Described as above. It counts as cell-based, Acinetobacter baumannii. The note with it: Table 6D; for MIC A. baumannii 053: strain 053, elevated MIC to Polymyxin B; for MIC A. baumannii 056: strain 056, elevated MIC to Polymyxin B; for MIC A. baumannii 068: strain 068, elevated MIC to Polymyxin B; for MIC A. baumannii 070: strain 070, elevated MIC to Polymyxin B. The protocol:
as §1, §2

Assay [4] deals with K. pneumoniae strains with elevated MICs to Polymyxin B. Described as above. It counts as cell-based, Klebsiella pneumoniae. The note with it: Table 6D; for MIC K. pneumoniae 062: strain 062, elevated MIC to Polymyxin B; for MIC K. pneumoniae 063: strain 063, elevated MIC to Polymyxin B; for MIC K. pneumoniae 064: strain 064, elevated MIC to Polymyxin B; for MIC K. pneumoniae 655: strain 655, elevated MIC to Polymyxin B. The protocol:
as §1, §2

Where [5] appears, read: absence of a second agent, Table 6B.

Like-named read-outs stand apart in the source and are kept apart here.

Regarding “3-aminomethyl- undecanoyl polymyxin B nonapeptide [Example D33]”, in assay [1], the “MIC E. coli 059” value came to 2 micrograms/mL, the “MIC E. coli 060” value was determined as 2 micrograms/mL and the “MIC E. coli 061” value stood at 8 micrograms/mL. For the same substance, in assay [2], the “MIC P. aeruginosa 066” value is recorded as 4 micrograms/mL and the “MIC P. aeruginosa 067” value amounted to 32 micrograms/mL. Moreover, in assay [3], the “MIC A. baumannii 053” value was found to be 32 micrograms/mL, the “MIC A. baumannii 056” value came to 16 micrograms/mL, the “MIC A. baumannii 068” value is 4 micrograms/mL and the “MIC A. baumannii 070” value is 4 micrograms/mL. For the same substance, in assay [4], the “MIC K. pneumoniae 062” value turned out to be 2 micrograms/mL, the “MIC K. pneumoniae 063” value is 16 micrograms/mL, the “MIC K. pneumoniae 064” value was determined as 2 micrograms/mL and the “MIC K. pneumoniae 655” value amounted to 32 micrograms/mL. In the assay with A. baumannii (setting [5]), the “MIC, A. baumannii ATCC BAA-747” value was 1 micrograms/mL and the “MIC, A. baumannii NCTC 13424” value is given as 2 micrograms/mL. In addition, in the assay on P. aeruginosa (setting [5]), the “MIC, P. aeruginosa ATCC 27853” value is 0.5 micrograms/mL and the “MIC, P. aeruginosa CCUG 59347” value is reported as 1 micrograms/mL. Besides, in the assay on E. coli (setting [5]), the “MIC, E. coli ATCC 25922” value is recorded as 1 micrograms/mL and the “MIC, E. coli NCTC 13441” value is 2 micrograms/mL. Also, the “MIC, K. pneumoniae ATCC 4352” value against K. pneumoniae (setting [5]) is reported as 2 micrograms/mL.
In the case of “4-(isobutyl- piperidine)-3- carbonyl L-Thr-L- Dap-polymyxin B heptapeptide [Example D83]”, in assay [1], the “MIC E. coli 058” value amounted to 4 micrograms/mL, the “MIC E. coli 059” value is listed as 8 micrograms/mL, the “MIC E. coli 060” value was found to be 2 micrograms/mL and the “MIC E. coli 061” value turned out to be 8 micrograms/mL. In addition, in assay [2], the “MIC P. aeruginosa 065” value is reported as 2 micrograms/mL, the “MIC P. aeruginosa 066” value was determined as 2 micrograms/mL and the “MIC P. aeruginosa 067” value worked out at 32 micrograms/mL. In assay [3], the “MIC A. baumannii 053” value was above 64 micrograms/mL, the “MIC A. baumannii 056” value amounted to 32 micrograms/mL, the “MIC A. baumannii 068” value came out at 8 micrograms/mL and the “MIC A. baumannii 070” value stood at 16 micrograms/mL. In assay [4], the “MIC K. pneumoniae 062” value stood at 32 micrograms/mL, the “MIC K. pneumoniae 063” value amounted to 16 micrograms/mL, the “MIC K. pneumoniae 064” value was 2 micrograms/mL and the “MIC K. pneumoniae 655” value worked out at 16 micrograms/mL. Also, in the assay on A. baumannii (sole activity, Table 6C), the “MIC, A. baumannii ATCC BAA-747” value worked out at 0.06 micrograms/mL and the “MIC, A. baumannii NCTC 13424” value is 0.125 micrograms/mL. Further, in the assay with P. aeruginosa (sole activity, Table 6C), the “MIC, P. aeruginosa ATCC 27853” value was found to be 0.25 micrograms/mL and the “MIC, P. aeruginosa CCUG 59347” value is on record as 0.5 micrograms/mL. Moreover, in the assay with E. coli (sole activity, Table 6C), the “MIC, E. coli ATCC 25922” value turned out to be 0.125 micrograms/mL and the “MIC, E. coli NCTC 13441” value is 0.06 micrograms/mL. Also, the “MIC, K. pneumoniae ATCC 4352” value in the assay with K. pneumoniae (sole activity, Table 6C) stood at 0.06 micrograms/mL.
For “4-octylpiperidine-3- carbonyl polymyxin B nonapeptide [Example D35]”, in assay [1], the “MIC E. coli 058” value was 1 micrograms/mL, the “MIC E. coli 059” value is listed as 0.5 micrograms/mL, the “MIC E. coli 060” value is 2 micrograms/mL and the “MIC E. coli 061” value is on record as 4 micrograms/mL. Moreover, in assay [2], the “MIC P. aeruginosa 065” value was determined as 0.25 micrograms/mL, the “MIC P. aeruginosa 066” value was determined as 1 micrograms/mL and the “MIC P. aeruginosa 067” value turned out to be 4 micrograms/mL. Also, in assay [3], the “MIC A. baumannii 053” value was 32 micrograms/mL, the “MIC A. baumannii 056” value was 8 micrograms/mL, the “MIC A. baumannii 068” value is given as 1 micrograms/mL and the “MIC A. baumannii 070” value stood at 1 micrograms/mL. In addition, in assay [4], the “MIC K. pneumoniae 062” value is 1 micrograms/mL, the “MIC K. pneumoniae 063” value stood at 2 micrograms/mL, the “MIC K. pneumoniae 064” value is 1 micrograms/mL and the “MIC K. pneumoniae 655” value is recorded as 4 micrograms/mL. In the assay with A. baumannii (setting [5]), the “MIC, A. baumannii ATCC BAA-747” value is 2 micrograms/mL and the “MIC, A. baumannii NCTC 13424” value turned out to be 1 micrograms/mL. Besides, in the assay on P. aeruginosa (setting [5]), the “MIC, P. aeruginosa ATCC 27853” value is 1 micrograms/mL and the “MIC, P. aeruginosa CCUG 59347” value is 1 micrograms/mL. In the assay on E. coli (setting [5]), the “MIC, E. coli ATCC 25922” value was determined as 1 micrograms/mL and the “MIC, E. coli NCTC 13441” value stood at 1 micrograms/mL. Also, in the assay with K. pneumoniae (setting [5]), the “MIC, K. pneumoniae ATCC 4352” value came to 2 micrograms/mL and the “MIC, K. pneumoniae ATCC BAA-2146” value is listed as 2 micrograms/mL.
Turning to “5- (isobutoxy)piperi- dine-3-carbonyl Polymyxin B nonapeptide [Example D63]”, in assay [1], the “MIC E. coli 058” value was determined as 16 micrograms/mL and the “MIC E. coli 061” value worked out at 32 micrograms/mL. Besides, in assay [2], the “MIC P. aeruginosa 065” value is 4 micrograms/mL, the “MIC P. aeruginosa 066” value is 32 micrograms/mL and the “MIC P. aeruginosa 067” value was above 256 micrograms/mL. The “MIC A. baumannii 056” value in assay [3] is recorded as 128 micrograms/mL. In assay [4], the “MIC K. pneumoniae 062” value was determined as 128 micrograms/mL and the “MIC K. pneumoniae 064” value is listed as 4 micrograms/mL. In the assay with A. baumannii (sole activity, Table 6C), the “MIC, A. baumannii ATCC BAA-747” value is 0.25 micrograms/mL and the “MIC, A. baumannii NCTC 13424” value is recorded as 0.25 micrograms/mL. Also, in the assay with P. aeruginosa (sole activity, Table 6C), the “MIC, P. aeruginosa ATCC 27853” value worked out at 0.5 micrograms/mL and the “MIC, P. aeruginosa CCUG 59347” value was 0.5 micrograms/mL. In the assay with E. coli (sole activity, Table 6C), the “MIC, E. coli ATCC 25922” value was 0.06 micrograms/mL and the “MIC, E. coli NCTC 13441” value turned out to be 0.125 micrograms/mL. Moreover, in the assay on K. pneumoniae (sole activity, Table 6C), the “MIC, K. pneumoniae ATCC 4352” value stood at 0.125 micrograms/mL and the “MIC, K. pneumoniae ATCC BAA-2146” value was determined as 0.125 micrograms/mL.
As to “5- isobutoxypiperidine- 3-carbonyl L- Thr-L-Dap- polymyxin B heptapeptide [Example D70]”, in assay [1], the “MIC E. coli 058” value was determined as 4 micrograms/mL, the “MIC E. coli 059” value is on record as 8 micrograms/mL, the “MIC E. coli 060” value stood at 4 micrograms/mL and the “MIC E. coli 061” value was 16 micrograms/mL. In assay [2], the “MIC P. aeruginosa 065” value is listed as 4 micrograms/mL, the “MIC P. aeruginosa 066” value is on record as 16 micrograms/mL and the “MIC P. aeruginosa 067” value was above 256 micrograms/mL. Also, in assay [3], the “MIC A. baumannii 053” value is given as above 256 micrograms/mL, the “MIC A. baumannii 056” value was found to be 16 micrograms/mL, the “MIC A. baumannii 068” value came out at 8 micrograms/mL and the “MIC A. baumannii 070” value is given as 32 micrograms/mL. Besides, in assay [4], the “MIC K. pneumoniae 062” value worked out at 64 micrograms/mL, the “MIC K. pneumoniae 063” value is recorded as 64 micrograms/mL, the “MIC K. pneumoniae 064” value was determined as 6 micrograms/mL and the “MIC K. pneumoniae 655” value is reported as 32 micrograms/mL. Moreover, in the assay with A. baumannii (sole activity, Table 6C), the “MIC, A. baumannii ATCC BAA-747” value is recorded as 0.06 micrograms/mL and the “MIC, A. baumannii NCTC 13424” value is 0.125 micrograms/mL. Moreover, in the assay with P. aeruginosa (sole activity, Table 6C), the “MIC, P. aeruginosa ATCC 27853” value turned out to be 0.25 micrograms/mL and the “MIC, P. aeruginosa CCUG 59347” value came to 0.5 micrograms/mL. In the assay on E. coli (sole activity, Table 6C), the “MIC, E. coli ATCC 25922” value stood at 0.125 micrograms/mL and the “MIC, E. coli NCTC 13441” value is recorded as 0.125 micrograms/mL. In the assay with K. pneumoniae (sole activity, Table 6C), the “MIC, K. pneumoniae ATCC 4352” value was 0.06 micrograms/mL.

The values are drawn from patent publication US20210221848A1, “POLYMYXIN DERIVATIVES AND THEIR USE IN COMBINATION THERAPY TOGETHER WITH DIFFERENT ANTIBIOTICS” (priority 2014, published 2021).
